Experimental data taken from ChEMBL document CHEMBL4376823, “The discovery of a potent and selective third-generation EGFR kinase inhibitor as a therapy for EGFR L858R/T790M double mutant non-small cell lung cancer” (Eur J Med Chem, 2019).

Experiments:
[1] = target: T1, Epidermal growth factor receptor (Homo sapiens, UniProt P00533, L858R/T790M); experiment: Inhibition of recombinant human GST-tagged EGFR T790M/L858R mutant expressed in baculovirus expression system using Tyr 04 as substrate incubated for 1 hr by Z'-LYTE assay
Target sequence in this assay (P00533 25-1210 T790M/L858R limits assumed): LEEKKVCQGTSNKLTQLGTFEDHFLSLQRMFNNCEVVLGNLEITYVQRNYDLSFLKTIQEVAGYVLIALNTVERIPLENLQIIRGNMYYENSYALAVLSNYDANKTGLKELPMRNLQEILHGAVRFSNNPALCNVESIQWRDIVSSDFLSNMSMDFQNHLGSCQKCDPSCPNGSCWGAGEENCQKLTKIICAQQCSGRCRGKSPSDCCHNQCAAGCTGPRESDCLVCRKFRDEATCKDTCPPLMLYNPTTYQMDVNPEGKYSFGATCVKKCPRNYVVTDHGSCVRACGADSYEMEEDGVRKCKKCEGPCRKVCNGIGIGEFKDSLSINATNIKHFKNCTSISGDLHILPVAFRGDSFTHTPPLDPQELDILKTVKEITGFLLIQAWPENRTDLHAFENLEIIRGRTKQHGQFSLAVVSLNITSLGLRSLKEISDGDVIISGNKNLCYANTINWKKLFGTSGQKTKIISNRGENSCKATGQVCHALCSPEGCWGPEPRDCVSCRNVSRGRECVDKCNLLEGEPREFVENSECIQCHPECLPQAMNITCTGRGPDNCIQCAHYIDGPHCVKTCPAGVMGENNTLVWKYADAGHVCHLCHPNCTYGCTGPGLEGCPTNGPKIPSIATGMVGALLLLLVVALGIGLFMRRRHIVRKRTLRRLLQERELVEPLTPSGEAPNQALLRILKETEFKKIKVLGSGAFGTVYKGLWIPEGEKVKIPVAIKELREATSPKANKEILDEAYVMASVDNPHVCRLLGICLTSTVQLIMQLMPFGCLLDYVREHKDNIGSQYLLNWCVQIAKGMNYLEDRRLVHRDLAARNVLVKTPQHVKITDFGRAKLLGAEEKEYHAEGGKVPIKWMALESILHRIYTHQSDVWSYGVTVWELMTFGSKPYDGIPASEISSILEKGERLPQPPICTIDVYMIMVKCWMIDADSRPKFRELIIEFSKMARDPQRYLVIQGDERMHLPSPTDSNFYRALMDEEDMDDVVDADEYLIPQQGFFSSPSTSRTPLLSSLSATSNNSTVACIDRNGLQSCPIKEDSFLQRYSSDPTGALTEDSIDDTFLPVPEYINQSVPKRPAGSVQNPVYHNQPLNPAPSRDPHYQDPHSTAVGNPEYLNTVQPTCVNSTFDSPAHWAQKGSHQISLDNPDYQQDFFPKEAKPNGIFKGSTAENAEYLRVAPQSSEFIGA

[2] = Cytotoxicity against human HEK293A cells expressing EGFR assessed as reduction in cell viability incubated for 72 hrs by MTT assay; assay type: cell-based, HEK293-A; conditions: hek293-a
[3] = Selectivity index, ratio of IC50 for human LO2 cells to IC50 for human NCI-H1975 cells expressing EGFR T790M/L858R mutant; assay type: toxicity
[4] = Selectivity index, ratio of IC50 for human BJ cells to IC50 for human NCI-H1975 cells expressing EGFR T790M/L858R mutant; assay type: toxicity
[5] = Selectivity index, ratio of IC50 for human HLF cells to IC50 for human NCI-H1975 cells expressing EGFR T790M/L858R mutant
[6] = Selectivity index, ratio of IC50 for human HEK293A cells to IC50 for human NCI-H1975 cells expressing EGFR T790M/L858R mutant; assay type: toxicity
[7] = tested on: NCI-H1975; experiment: Induction of apoptosis in human NCI-H1975 cells assessed as viable cells at 5 nM incubated for 24 hrs by propidium iodide and annexin-V FITC staining based flow cytometry (reference value: 98.82 %); assay type: functional; conditions: NCI-H1975, 24 h, read-out: Activity
[8] = tested on: NCI-H1975; experiment: Induction of apoptosis in human NCI-H1975 cells assessed as late apoptotic cells at 5 nM incubated for 24 hrs by propidium iodide and annexin-V FITC staining based flow cytometry (reference value: 0.23 %); assay type: functional
[9] = tested on: NCI-H1975; experiment: Induction of apoptosis in human NCI-H1975 cells assessed as necrotic cells at 5 nM incubated for 24 hrs by propidium iodide and annexin-V FITC staining based flow cytometry (reference value: 0.01 %); assay type: functional
[10] = tested on: NCI-H1975; experiment: Induction of apoptosis in human NCI-H1975 cells assessed as viable cells at 50 nM incubated for 24 hrs by propidium iodide and annexin-V FITC staining based flow cytometry (reference value: 98.82 %); assay type: functional; conditions: NCI-H1975, 24 h, read-out: Activity
[11] = tested on: NCI-H1975; experiment: Induction of apoptosis in human NCI-H1975 cells assessed as late apoptotic cells at 50 nM incubated for 24 hrs by propidium iodide and annexin-V FITC staining based flow cytometry (reference value: 0.23 %); assay type: functional
[12] = tested on: NCI-H1975; experiment: Induction of apoptosis in human NCI-H1975 cells assessed as necrotic cells at 50 nM incubated for 24 hrs by propidium iodide and annexin-V FITC staining based flow cytometry (reference value: 0.01 %); assay type: functional
[13] = tested on: NCI-H1975; experiment: Induction of apoptosis in human NCI-H1975 cells assessed as early apoptotic cells at 5 nM incubated for 48 hrs by propidium iodide and annexin-V FITC staining based flow cytometry (reference value: 0.95 %); assay type: functional
[14] = tested on: NCI-H1975; experiment: Induction of apoptosis in human NCI-H1975 cells assessed as late apoptotic cells at 5 nM incubated for 48 hrs by propidium iodide and annexin-V FITC staining based flow cytometry (reference value: 0.23 %); assay type: functional
[15] = tested on: NCI-H1975; experiment: Induction of apoptosis in human NCI-H1975 cells assessed as necrotic cells at 5 nM incubated for 48 hrs by propidium iodide and annexin-V FITC staining based flow cytometry (reference value: 0.01 %); assay type: functional
[16] = tested on: NCI-H1975; experiment: Induction of apoptosis in human NCI-H1975 cells assessed as viable cells at 25 nM incubated for 48 hrs by propidium iodide and annexin-V FITC staining based flow cytometry (reference value: 99.05 %); assay type: functional; conditions: NCI-H1975, 48 h, read-out: Activity
[17] = tested on: NCI-H1975; experiment: Induction of apoptosis in human NCI-H1975 cells assessed as early apoptotic cells at 50 nM incubated for 48 hrs by propidium iodide and annexin-V FITC staining based flow cytometry (reference value: 0.95 %); assay type: functional
[18] = tested on: NCI-H1975; experiment: Induction of apoptosis in human NCI-H1975 cells assessed as viable cells at 5 nM incubated for 72 hrs by propidium iodide and annexin-V FITC staining based flow cytometry (reference value: 97.55 %); assay type: functional; conditions: NCI-H1975, 72 h, read-out: Activity
[19] = tested on: NCI-H1975; experiment: Induction of apoptosis in human NCI-H1975 cells assessed as necrotic cells at 5 nM incubated for 72 hrs by propidium iodide and annexin-V FITC staining based flow cytometry (reference value: 0.01 %); assay type: functional
[20] = tested on: NCI-H1975; experiment: Induction of apoptosis in human NCI-H1975 cells assessed as viable cells at 25 nM incubated for 72 hrs by propidium iodide and annexin-V FITC staining based flow cytometry (reference value: 97.55 %); assay type: functional; conditions: NCI-H1975, 72 h, read-out: Activity
[21] = tested on: NCI-H1975; experiment: Induction of apoptosis in human NCI-H1975 cells assessed as late apoptotic cells at 25 nM incubated for 72 hrs by propidium iodide and annexin-V FITC staining based flow cytometry (reference value: 0.01 %); assay type: functional
[22] = tested on: NCI-H1975; experiment: Induction of apoptosis in human NCI-H1975 cells assessed as necrotic cells at 25 nM incubated for 72 hrs by propidium iodide and annexin-V FITC staining based flow cytometry (reference value: 0.01 %); assay type: functional
[23] = tested on: NCI-H1975; experiment: Induction of apoptosis in human NCI-H1975 cells assessed as viable cells at 50 nM incubated for 72 hrs by propidium iodide and annexin-V FITC staining based flow cytometry (reference value: 97.55 %); assay type: functional; conditions: NCI-H1975, 72 h, read-out: Activity
[24] = Half life in ICR mouse at 10 mg/kg, po; assay type: ADME, organism-based; conditions: in vivo
[25] = Cmax in ICR mouse at 10 mg/kg, po; assay type: ADME, organism-based; parameters: dose 10 mg/kg, route oral; conditions: in vivo
[26] = Oral bioavailability in ICR mouse at 10 mg/kg; assay type: ADME, organism-based; conditions: in vivo
[27] = Half life in ICR mouse at 5 mg/kg, iv; assay type: ADME, organism-based; conditions: in vivo
[28] = Cmax in ICR mouse at 5 mg/kg, iv; assay type: ADME, organism-based; parameters: dose 5 mg/kg, route intravenous; conditions: in vivo
[29] = AUC (0 to t) in ICR mouse at 5 mg/kg, iv; assay type: ADME, organism-based; conditions: in vivo
[30] = AUC (0 to infinity) in ICR mouse at 5 mg/kg, iv; assay type: ADME, organism-based; parameters: dose 5 mg/kg, time infinity, route intravenous; conditions: in vivo
[31] = MRT (0 to t) in ICR mouse at 5 mg/kg, iv; assay type: ADME, organism-based; conditions: in vivo
[32] = MRT (0 to infinity) in ICR mouse at 5 mg/kg, iv; assay type: ADME, organism-based; conditions: in vivo
[33] = target: T1, Epidermal growth factor receptor; experiment: Inhibition of EGFR T790M/L858R mutant in human NCI-H1975 cells assessed as reduction in EGFR Y1068 phosphorylation incubated for 4 hrs by Western blot analysis; assay type: cell-based
Target sequence in this assay (P00533 whole entry T790M/L858R, looked up): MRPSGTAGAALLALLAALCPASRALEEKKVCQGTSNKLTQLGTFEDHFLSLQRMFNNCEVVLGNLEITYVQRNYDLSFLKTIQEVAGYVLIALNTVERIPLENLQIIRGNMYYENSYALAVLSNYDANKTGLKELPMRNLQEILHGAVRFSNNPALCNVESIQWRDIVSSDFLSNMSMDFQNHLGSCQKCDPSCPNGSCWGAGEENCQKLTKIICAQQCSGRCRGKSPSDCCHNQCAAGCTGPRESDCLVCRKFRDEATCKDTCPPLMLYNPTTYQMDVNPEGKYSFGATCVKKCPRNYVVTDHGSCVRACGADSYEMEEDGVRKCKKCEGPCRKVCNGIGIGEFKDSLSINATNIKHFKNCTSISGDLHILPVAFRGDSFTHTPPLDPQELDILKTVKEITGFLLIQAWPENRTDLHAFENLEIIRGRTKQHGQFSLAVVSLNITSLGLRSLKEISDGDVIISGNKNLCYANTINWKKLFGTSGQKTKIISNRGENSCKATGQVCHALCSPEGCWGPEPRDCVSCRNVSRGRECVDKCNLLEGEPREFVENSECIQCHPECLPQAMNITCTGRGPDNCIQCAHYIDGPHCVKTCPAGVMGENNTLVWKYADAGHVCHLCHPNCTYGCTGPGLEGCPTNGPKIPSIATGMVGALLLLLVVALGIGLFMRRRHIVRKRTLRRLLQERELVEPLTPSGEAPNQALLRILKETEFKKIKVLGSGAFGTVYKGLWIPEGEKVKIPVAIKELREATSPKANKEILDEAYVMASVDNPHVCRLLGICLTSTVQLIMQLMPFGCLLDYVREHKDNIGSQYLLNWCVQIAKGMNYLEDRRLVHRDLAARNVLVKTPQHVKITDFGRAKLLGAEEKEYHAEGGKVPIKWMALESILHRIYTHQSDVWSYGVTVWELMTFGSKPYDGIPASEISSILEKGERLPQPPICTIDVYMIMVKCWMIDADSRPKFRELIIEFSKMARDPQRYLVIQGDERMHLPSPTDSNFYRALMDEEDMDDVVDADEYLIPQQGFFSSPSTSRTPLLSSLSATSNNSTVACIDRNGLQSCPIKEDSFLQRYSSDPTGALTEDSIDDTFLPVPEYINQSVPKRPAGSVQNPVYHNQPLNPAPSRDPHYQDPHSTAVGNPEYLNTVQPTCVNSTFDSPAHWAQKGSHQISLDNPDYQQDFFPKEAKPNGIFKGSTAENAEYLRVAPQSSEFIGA

[34] = target: Epidermal growth factor receptor (Homo sapiens, UniProt P00533); experiment: Inhibition of EGFR in human NCI-H292 cells assessed as reduction in EGFR Y1068 phosphorylation at incubated for 4 hrs by Western blot analysis; assay type: cell-based
Epidermal growth factor receptor (Homo sapiens, UniProt P00533), sequence (P00533 whole entry): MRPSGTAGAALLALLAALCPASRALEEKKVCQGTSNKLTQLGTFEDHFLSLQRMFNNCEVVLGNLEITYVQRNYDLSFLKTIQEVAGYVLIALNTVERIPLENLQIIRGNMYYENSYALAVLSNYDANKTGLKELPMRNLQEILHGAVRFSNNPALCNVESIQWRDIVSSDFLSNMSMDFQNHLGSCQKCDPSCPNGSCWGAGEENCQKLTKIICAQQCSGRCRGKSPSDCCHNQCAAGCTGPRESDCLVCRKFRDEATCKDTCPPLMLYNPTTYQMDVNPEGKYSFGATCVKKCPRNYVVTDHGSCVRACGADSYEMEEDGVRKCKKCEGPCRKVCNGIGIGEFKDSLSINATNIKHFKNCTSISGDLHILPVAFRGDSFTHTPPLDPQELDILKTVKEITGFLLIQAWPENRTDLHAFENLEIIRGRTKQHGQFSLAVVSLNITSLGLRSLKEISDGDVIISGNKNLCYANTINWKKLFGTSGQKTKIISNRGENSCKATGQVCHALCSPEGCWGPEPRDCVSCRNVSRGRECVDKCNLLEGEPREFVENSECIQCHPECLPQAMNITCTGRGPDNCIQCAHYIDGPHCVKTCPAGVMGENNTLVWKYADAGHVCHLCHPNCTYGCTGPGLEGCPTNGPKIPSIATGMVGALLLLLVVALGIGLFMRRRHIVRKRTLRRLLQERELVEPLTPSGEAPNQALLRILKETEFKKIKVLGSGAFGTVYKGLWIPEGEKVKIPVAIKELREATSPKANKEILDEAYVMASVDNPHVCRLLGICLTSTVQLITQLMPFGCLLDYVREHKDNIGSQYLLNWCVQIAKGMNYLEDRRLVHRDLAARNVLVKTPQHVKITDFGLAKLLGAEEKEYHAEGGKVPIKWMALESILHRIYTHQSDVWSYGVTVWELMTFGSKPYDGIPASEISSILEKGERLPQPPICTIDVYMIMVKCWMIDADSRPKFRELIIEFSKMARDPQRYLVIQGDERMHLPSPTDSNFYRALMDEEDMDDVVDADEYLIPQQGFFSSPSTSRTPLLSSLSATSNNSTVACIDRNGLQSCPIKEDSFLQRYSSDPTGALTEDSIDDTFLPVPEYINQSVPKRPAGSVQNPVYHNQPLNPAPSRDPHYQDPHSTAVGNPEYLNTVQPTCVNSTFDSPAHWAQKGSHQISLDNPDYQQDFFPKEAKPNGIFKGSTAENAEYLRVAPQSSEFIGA

In the case of C=CC(=O)Nc1cc(Nc2nccc(-c3cn(C)c4ccccc34)n2)c(OC)cc1[S+]([O-])CCN(C)C (single isomer, unassigned; (-)), the IC50 [1] is reported as 4 nM, the IC50 [2] is reported as 1920 nM and the “Ratio IC50” value [3] is reported as greater than 1000. The “Ratio IC50” value [4] was greater than 1000, the “Ratio IC50” value [5] was 910 and the “Ratio IC50” value [6] was 192. For the same molecule, the viability at 0.005 µM [7] was 83.6%, the Activity [8] was 1.17% and the Activity [9] was 0.32%. It also gave a viability at 0.05 µM [10] of 65.6%, an Activity [11] of 2.3% and an Activity [12] of 0.45%. For the same molecule, the Activity [13] was 22.89%, the Activity [14] was 0.06% and the Activity [15] was 0.05%. The viability at 0.025 µM [16] was 44.7%, the Activity [17] was 56.02% and the viability at 0.005 µM [18] was 57.5%. It also gave an Activity [19] of 1.2%, a viability at 0.025 µM [20] of 35.2% and an Activity [21] of 21.68%. For the same molecule, the Activity [22] was 1.85%, the viability at 0.05 µM [23] was 11.3% and the half-life [24] was 1.73 h. For the same molecule, the Cmax [25] was 695 ng/mL, the bioavailability [26] was 73.7% and the half-life [27] was 1.12 h. The Cmax [28] was 1610 ng/mL, the AUC(0-t) [29] was 1290 ng·h/mL and the AUC(0-inf) [30] was 1300 ng·h/mL. For the same molecule, the MRT last [31] was 1.15 h, the MRT inf [32] was 1.21 h and the EC50 [33] was 7.06 nM. The EC50 [34] was 90.2 nM.
